For test [1], the target named is T1, human LXRβ ligand binding domain (Homo sapiens, UniProt P55055).
T1 construct: made in house; host or cells: E. coli BL21 (DE3), vector pRSETa
T1 sequence (P55055 184-460 limits assumed): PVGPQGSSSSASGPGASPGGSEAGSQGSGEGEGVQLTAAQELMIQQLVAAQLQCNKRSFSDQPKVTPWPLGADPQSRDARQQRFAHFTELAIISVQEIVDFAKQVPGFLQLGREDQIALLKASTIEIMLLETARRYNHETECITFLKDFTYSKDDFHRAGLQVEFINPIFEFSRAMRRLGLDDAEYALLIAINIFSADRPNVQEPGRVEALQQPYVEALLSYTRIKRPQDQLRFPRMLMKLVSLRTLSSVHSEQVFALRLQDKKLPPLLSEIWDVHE
T1 sequence (Q15788 676-700 partner limits assumed): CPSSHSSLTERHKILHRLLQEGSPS
The experiment in a line: Ligand Sensing Assay (LiSA) for LXRβ agonist activity (recruitment of SRC1-derived peptide). Format: biochemical. To be noted: 1 μM; over a background reading of 10000 fluorescence units. The source says:
The term “LXR modulator,” as used herein, means a small molecule that modulates the biological activities of LXRα and/or LXRβ. More specifically, such an LXR modulator either enhances or inhibits the biological activities of LXR. If such a modulator partially or completely enhances the biological activities of LXR, it is a partial or complete LXR agonist, respectively. […] Preferably, the LXR modulator compounds of this invention are LXR agonists. As used herein, the term “LXR agonist” refers to compounds which achieve at least 20% activation of LXR relative to 24(S),25-epoxycholesterol, the appropriate positive control in the HTRF assay described below in Test Method 1. It should be noted that to show activity in the specific Test Methods described herein, the LXR modulator compound must bind to the LXR nuclear receptor and recruit the specific peptide derived from the coactivator protein, SRC1, to the modulator compound-bound LXR complex. […]
Typically 25-50 g of cell paste is resuspended in 250-500 mL TBS, pH 8.0 (25 mM Tris, 150 mM NaCl). […] After washing to baseline absorbance with equilibration buffer, the column is washed with approximately one column volume of TBS pH […] containing 95 mM imidazole. […] Afterwashing to baseline absorbance with the dilution buffer the protein is eluted with a gradient from 50-500 mM NaCl. […]

In test [2] the target is T2, LXRα ligand binding domain (Homo sapiens, UniProt Q13133).
T2 construct: His tag; made in house
T2 sequence (Q13133 183-447): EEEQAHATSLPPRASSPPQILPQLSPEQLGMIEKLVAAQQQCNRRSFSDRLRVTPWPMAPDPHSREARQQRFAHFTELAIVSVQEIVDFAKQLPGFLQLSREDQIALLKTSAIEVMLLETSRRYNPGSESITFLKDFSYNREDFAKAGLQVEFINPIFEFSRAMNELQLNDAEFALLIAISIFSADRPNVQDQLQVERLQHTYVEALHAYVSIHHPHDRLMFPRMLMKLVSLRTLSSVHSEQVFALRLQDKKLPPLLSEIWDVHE
T2 sequence (Q15788 676-700 partner): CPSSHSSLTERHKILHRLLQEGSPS
As to the kind of experiment: Ligand Sensing Assay for LXRα agonist activity. It counts as biochemical. To be noted: 1 μM; over a background reading of 10000 fluorescence units. On the procedure:
Test Method 2: Ligand Sensing Assay for LXRα Agonist Activity
The assay for LXRα was run according to the procedures of Test Method 1, above using his-tagged LXRα ligand binding domain (amino acids 183-447 of Genbank accession number U22662, with the 14th amino acid corrected to A from R). In this assay 1 μM 24(S),25-epoxycholesterol gave a reading of 20000 fluorescence units over a background reading of 10000 fluorescence units.

In the case of `C[C@H](CC[C@@H]1OC1(C)C)[C@H]1CC[C@H]2[C@@H]3CC=C4C[C@@H](O)CC[C@]4(C)[C@H]3CC[C@]12C` [24(S),25-epoxycholesterol], the reading in test [1] and in test [2] was 20000 fluorescence units each time.
